Experimental data from patent US6573293B2, “Pyrrole substituted 2-indolinone protein kinase inhibitors” (Sugen, Inc., priority 2000, dated 2003).

Tests used:
[1] = molecular target: T1, EGFR (Homo sapiens, UniProt P00533); assay: EGFR bioassay (bio EGF); type: biochemical
T1 construct: A431 cell lysate (SUGEN, Inc.); host or cells: A431
Method: This assay is used to the in vitro kinase activity of FGF1-R in an ELISA assay.
1. Corning 96-well Elisa plates.
2. SUMO1 monoclonal anti-EGFR antibody (SUGEN, Inc.).
5. Blocking Buffer: for 100 ml, mix 5.0 g Carnation Instant Non-fat Milk® with 100 ml of PBS.
6. A431 cell lysate (SUGEN, Inc.).
9. […] This reagent should be made up immediately prior to use and kept on ice.
11. […] Prepare just prior to use, keep on ice.
12. NUNC 96-well V bottom polypropylene plates.
14. Rabbit polyclonal anti-phosphotyrosine serum (SUGEN, Inc.).
15. Goat anti-rabbit IgG peroxidase conjugate (Biosource Cat. No. ALI0404).
17. 30% Hydrogen peroxide.
1. Coat Corning 96 well ELISA plates with 0.5 μg SUMO1 in 100 μl PBS per well, store overnight at 4° C.
2. Remove unbound SUMO1 from wells by inverting plate to remove liquid. Wash 1×with dH2O. Pat the plate on a paper towel to remove excess liquid.
3. Add 150 μl of Blocking Buffer to each well. Incubate, with shaking, for 30 min. at room temperature.
4. Wash plate 3×with deionized water, then once with TBST. Pat plate on a paper towel to remove excess liquid and bubbles.
5. Dilute lysate in PBS (7 μg lysate/100 μl PBS).
6. Add 100 μl of diluted lysate to each well. Shake at room temperature for 1 hr.
7. Wash plates as in 4, above.
8. Add 120 μl TBS to ELISA plate containing captured EGFR.
10. Add 13.5 μl diluted test compound to ELISA plate. To control wells, add 13.5 μl TBS in 10% DMSO.
11. Incubate, with shaking, for 30 minutes at room temperature.
12. Add 15 μl phosphorylation mix to all wells except negative control well. Final well volume should be approximately 150 μl with 3 μM ATP/5 mM MnCl2 final concentration in each well. Incubate with shaking for 5 minutes.
13. Stop reaction by adding 16.5 μl of EDTA solution while shaking. Shake for additional 1 min.
14. Wash 4×with deionized water, 2×with TBST.
15. Add 100 μl anti-phosphotyrosine (1:3000 dilution in TBST) per well. Incubate, with shaking, for 30-45 min. at room temperature.
17. […] Incubate with shaking for 30 min. at room temperature.
19. Add 100 μl of ABTS/H2O2 solution to each well.
20. Incubate 5 to 10 minutes with shaking. Remove any bubbles.
21. If necessary, stop reaction by adding 100 μl 0.2 M HCl per well.

[2] = molecular target: T2, human cdk2/cyclin A (Homo sapiens, UniProt P24941); assay: CDK2/cyclin A scintillation proximity assay (cdk2spa); type: biochemical; details: read-out: cdk2spa C50
T2 construct: host or cells: Sf9
Method: Amersham streptavidin coated polyvinyltoluene SPA beads (Amersham catalog #RPNQ0007). The beads should be reconstituted in PBS without magnesium or calcium, at 20 mg/ml.
Activated cdk2/cyclin A enzyme complex purified from Sf9 cells (SUGEN, Inc.).
Biotinylated peptide substrate (Debtide).
The ultimate concentration per well will be 0.5 μM “cold” ATP, 0.1 μg Debtide and 0.2 μCi γ^33P ATP.
1M Tris, pH adjusted to 7.4 with HCl.
Prepare solutions of test compounds at 5×the desired final concentration in 5% DMSO. Add 10 ul to each well. For negative controls, use 10 ul 5% DMSO alone in wells.
Add 20 ul enzyme to each well.
Add 10 μL of 0.5 M EDTA to the negative control wells.
To start kinase reaction, add 20 μL of peptide/ATP mixture to each well. Incubate for 1 hr. without shaking.
Add 200 μl stop solution to each well.
Count plate using Trilux or similar reader.

[3] = molecular target: T3, GST-Flk1 (Mus musculus, UniProt P35918); assay: GST-FLK-1 bioassay (bio flkGST); type: biochemical
T3 construct: GST-Flk1cd purified from sf9 recombinant baculovirus transformation; host or cells: Sf9 (baculovirus)
T3 sequence (P35918 784-1345 limits assumed): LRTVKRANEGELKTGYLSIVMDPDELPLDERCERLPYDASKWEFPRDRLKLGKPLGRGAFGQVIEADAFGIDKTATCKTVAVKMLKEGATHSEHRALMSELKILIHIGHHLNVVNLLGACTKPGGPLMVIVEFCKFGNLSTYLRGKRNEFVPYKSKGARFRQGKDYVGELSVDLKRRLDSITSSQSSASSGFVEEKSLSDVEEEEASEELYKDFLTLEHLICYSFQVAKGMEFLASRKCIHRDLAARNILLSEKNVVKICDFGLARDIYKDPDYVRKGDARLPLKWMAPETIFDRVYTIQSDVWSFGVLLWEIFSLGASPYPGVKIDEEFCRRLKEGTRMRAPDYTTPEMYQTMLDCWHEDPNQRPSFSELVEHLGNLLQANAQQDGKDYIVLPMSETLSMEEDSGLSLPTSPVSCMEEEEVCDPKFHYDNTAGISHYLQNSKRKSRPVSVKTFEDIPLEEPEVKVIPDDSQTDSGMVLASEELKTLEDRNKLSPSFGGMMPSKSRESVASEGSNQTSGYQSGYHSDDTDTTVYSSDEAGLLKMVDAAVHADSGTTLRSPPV
Method: This assay analyzes the tyrosine kinase activity of GST-Flk1 on poly(glu,tyr) peptides.
Preparation of poly(glu,tyr)(pEY) coated assay plates: Coat 2 ug/well of poly(glu,tyr)(pEY) in 100 ul PBS, hold at room temperature for 2 hours or at 4° C. overnight. Cover plates well to prevent evaporation.
When all reagents have dissolved, adjust the pH to 7.2 with HCl. Bring total volume to 1 L with dH2O.
PBST Buffer: to 1 L of PBS Buffer, add 1.0 ml Tween-20.
Adjust pH to 7.2 with HCl. Add 10 g BSA, stir to dissolve. Bring total volume to 1 L with dH2O. Filter to remove particulate matter.
Adjust total volume to 1 L with PBS buffer, filter to remove particulate matter.
GST-Flk1cd purified from sf9 recombinant baculovirus transformation (SUGEN, Inc.).
Add 10 N NaOH until EDTA dissolves. Adjust pH to 8.0. Adjust total volume to 100 ml with dH2O.
Anti-phosphotyrosine monoclonal antibody conjugated to horseradish peroxidase (PY99 HRP, Santa Cruz Biotech).
2,2′-Azinobis(3-ethylbenzthiazoline-6-sulfonic acid (ABTS, Moss, Cat. No. ABST).
Coat Corning 96-well ELISA plates with 2 μg of polyEY peptide in sterile PBS as described in step 3 of Materials and Reagents.
Remove unbound liquid from wells by inverting plate. Wash once with TBST. Pat the plate on a paper towel to remove excess liquid.
Add 100 μl of 1% BSA in PBS to each well. Incubate, with shaking, for 1 hr. at room temperature.
Soak wells with 50 mM HEPES (pH7.5) (150 μl/well).
Dilute test compound with dH2O/4% DMSO to 4 times the desired final assay concentration in 96-well polypropylene plates.
Add 25 μl diluted test compound to ELISA plate. In control wells, place 25 μl of dH2O/4% DMSO.
Add 25 μl 0.5M EDTA to negative control wells.
Dilute GST-Flk1 to 0.005 μg (5 ng)/well with KDB.
Add 50 μl of diluted enzyme to each well.
Incubate, with shaking, for 15 minutes at room temperature.
Wash 3×with TBST and pat plate on paper towel to remove excess liquid.
Incubate, with shaking, for 90 min. at room temperature.
Add 100 μl of room temperature ABTS solution to each well.
Stop reaction by adding 20 μl of 10% SDS to each well.

[4] = molecular target: GST-FGFR1 (Homo sapiens, UniProt P11362); assay: FGFR1 bioassay (bio PGFR1); type: biochemical
GST-FGFR1, sequence (P11362 22-822): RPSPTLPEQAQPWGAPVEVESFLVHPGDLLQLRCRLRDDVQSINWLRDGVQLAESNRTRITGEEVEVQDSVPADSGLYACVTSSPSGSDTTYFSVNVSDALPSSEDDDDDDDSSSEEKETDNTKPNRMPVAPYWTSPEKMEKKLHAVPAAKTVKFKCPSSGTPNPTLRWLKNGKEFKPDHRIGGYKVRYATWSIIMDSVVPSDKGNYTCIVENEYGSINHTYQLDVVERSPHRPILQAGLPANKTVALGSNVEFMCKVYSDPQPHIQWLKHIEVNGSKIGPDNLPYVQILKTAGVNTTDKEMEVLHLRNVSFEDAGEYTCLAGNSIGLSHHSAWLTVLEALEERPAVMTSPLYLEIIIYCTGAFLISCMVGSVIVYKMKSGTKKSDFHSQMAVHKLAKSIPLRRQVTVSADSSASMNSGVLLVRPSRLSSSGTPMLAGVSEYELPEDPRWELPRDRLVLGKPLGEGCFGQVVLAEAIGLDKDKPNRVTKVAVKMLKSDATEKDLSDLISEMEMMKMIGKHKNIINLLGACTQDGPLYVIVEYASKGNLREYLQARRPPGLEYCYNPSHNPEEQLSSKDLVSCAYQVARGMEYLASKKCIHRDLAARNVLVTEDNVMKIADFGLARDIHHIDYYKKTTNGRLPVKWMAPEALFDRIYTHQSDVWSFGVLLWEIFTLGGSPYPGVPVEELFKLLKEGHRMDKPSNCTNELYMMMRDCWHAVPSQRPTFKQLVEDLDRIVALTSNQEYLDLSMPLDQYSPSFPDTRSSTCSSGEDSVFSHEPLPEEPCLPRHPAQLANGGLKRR
Method: This assay is used to measure the in vitro kinase activity of FGF1-R in an ELISA assay.
Poly(Glu-Tyr) (Sigma Catalog #PO275).
50 mM Hepes Buffer Solution.
Blocking Buffer (5% BSA/PBS).
Purified GST-FGFR1 (SUGEN, Inc.)
Mix 500 μl 1M Hepes (GIBCO), 20 μl 5% BSA/PBS, 10 μl 100 mM sodium orthovanadate and 50 μl 5M NaCl.
Add 500 μL TWEEN to 1 liter TBS.
(§1) Rabbit polyclonal anti-phosphotyrosine serum (SUGEN, Inc.).
Goat anti-rabbit IgG peroxidase conjugate (Biosource, Catalog #ALI0404).
Coat Costar 96 well ELISA plates with 1 μg per well Poly(Glu,Tyr) in 100 μl PBS. Store overnight at 4° C.
Wash coated plates once with PBS.
Add 150 μL of 5% BSA/PBS Blocking Buffer to each well. Incubate, with shaking, for 1 hr.room temperature.
Wash plate 2×with PBS, then once with 50 mM Hepes. Pat plates on a paper towel to remove excess liquid and bubbles.
Add 25 μL of 0.4 mM test compound in 4% DMSO or 4% DMSO alone (controls) to plate.
Dilute purified GST-FGFR1 in Kinase Dilution Buffer (5 ng kinase/50 ul KDB/well).
Add 50 μL of diluted kinase to each well.
This is a fast kinase reaction and must be stopped with 25 μL of 0.5M EDTA in a manner similar to the addition of ATP.
Wash plate 4×with fresh TBST.
Make up Antibody Dilution Buffer: Per 50 ml: Mix 5 ml of 5% BSA, 250 μl of 5% milk and 50 μl of 100 mM sodium vanadate, bring to final volume with 0.05% TBST.
Add 100 μl per well of anti-phosphotyrosine (1:10000 dilution in ADB). Incubate, with shaking for 1 hr. at room temperature.
Incubate, with shaking for 1 hr. at room temperature.
Wash as in step 10 and then with PBS to remove bubbles and excess TWEEN.
(§2) Add 100 μl of ABTS/H2O2 solution to each well.
17. […] Remove any bubbles.

[5] = molecular target: T4, PDGFR-β (Homo sapiens, UniProt P09619); assay: PDGFR bioassay (bio PDGF); type: biochemical
T4 construct: host or cells: NIH 3T3
T4 sequence (P09619 33-1106): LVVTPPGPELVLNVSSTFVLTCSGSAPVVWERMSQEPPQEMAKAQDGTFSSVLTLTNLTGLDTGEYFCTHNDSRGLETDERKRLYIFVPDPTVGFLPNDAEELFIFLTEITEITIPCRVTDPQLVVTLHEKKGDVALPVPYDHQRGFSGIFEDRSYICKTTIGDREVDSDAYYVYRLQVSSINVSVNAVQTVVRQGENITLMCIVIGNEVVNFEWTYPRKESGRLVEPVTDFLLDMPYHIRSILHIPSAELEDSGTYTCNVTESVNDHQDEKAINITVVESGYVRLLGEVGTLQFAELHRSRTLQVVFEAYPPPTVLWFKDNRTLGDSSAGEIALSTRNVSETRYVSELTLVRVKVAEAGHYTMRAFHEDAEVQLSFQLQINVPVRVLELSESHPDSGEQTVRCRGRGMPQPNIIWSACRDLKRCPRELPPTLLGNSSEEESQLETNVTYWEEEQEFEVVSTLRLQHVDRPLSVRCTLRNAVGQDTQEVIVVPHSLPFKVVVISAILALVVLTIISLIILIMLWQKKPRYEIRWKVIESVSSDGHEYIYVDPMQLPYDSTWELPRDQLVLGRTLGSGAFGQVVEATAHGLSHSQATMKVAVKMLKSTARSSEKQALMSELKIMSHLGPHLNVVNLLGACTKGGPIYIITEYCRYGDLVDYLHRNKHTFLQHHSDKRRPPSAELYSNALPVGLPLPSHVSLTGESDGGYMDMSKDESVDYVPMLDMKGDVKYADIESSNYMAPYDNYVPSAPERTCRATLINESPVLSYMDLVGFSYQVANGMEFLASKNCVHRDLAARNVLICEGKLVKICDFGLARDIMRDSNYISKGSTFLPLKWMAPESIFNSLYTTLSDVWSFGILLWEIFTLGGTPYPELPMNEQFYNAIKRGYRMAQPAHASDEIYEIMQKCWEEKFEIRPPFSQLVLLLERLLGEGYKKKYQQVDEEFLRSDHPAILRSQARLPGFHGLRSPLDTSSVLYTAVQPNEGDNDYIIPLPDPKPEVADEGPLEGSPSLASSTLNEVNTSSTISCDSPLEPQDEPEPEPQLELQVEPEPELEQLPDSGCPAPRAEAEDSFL
Method: Corning 96-well Elisa plates
28D4C10 monoclonal anti-PDGFR antibody (SUGEN, Inc.).
Blocking Buffer (same as for EGFR bioassay).
PDGFR-β expressing NIH 3T3 cell lysate (SUGEN, Inc.).
Kinase buffer phosphorylation mix: for 10 ml, mix 250 μl 1M TRIS, 200 μl 5M NaCl, 100 μl 1M MnCl2 and 50 μl 100 mM Triton X-100 in enough dH2O to make 10 ml.
(§3) NUNC 96-well V bottom polypropylene plates.
as §1
Goat anti-rabbit IgG peroxidase conjugate (Biosource Cat. No. ALI0404).
Hydrogen peroxide, 30% solution.
Coat Corning 96 well ELISA plates with 0.5 μg 28D4C10 in 100 μl PBS per well, store overnight at 4° C.
Remove unbound 28D4C10 from wells by inverting plate to remove liquid. Wash 1×with dH2O. Pat the plate on a paper towel to remove excess liquid.
Add 150 μl of Blocking Buffer to each well. Incubate for 30 min. at room temperature with shaking.
Wash plate 3×with deionized water, then once with TBST. Pat plate on a paper towel to remove excess liquid and bubbles.
Dilute lysate in HNTG (10 μg lysate/100 μl HNTG).
Add 100 μl of diluted lysate to each well. Shake at room temperature for 60 min.
Wash plates as described in Step 4.
Add 80 μl working kinase buffer mix to ELISA plate containing captured PDGFR.
Add 10 μl diluted test compound to ELISA plate. To control wells, add 10 μl TBS+10% DMSO. Incubate with shaking for 30 minutes at room temperature.
Add 10 μl ATP directly to all wells except negative control well (final well volume should be approximately 100 μl with 20 μM ATP in each well.) Incubate 30 minutes with shaking.
Stop reaction by adding 10 μl of EDTA solution to each well.
Wash 4×with deionized water, twice with TBST.
Add 100 μl anti-phosphotyrosine (1:3000 dilution in TBST) per well. Incubate with shaking for 30-45 min. at room temperature.
Incubate with shaking for 30 min. at room temperature.
as §2
Incubate 10 to 30 minutes with shaking. Remove any bubbles.
If necessary stop reaction with the addition of 100 μl 0.2 M HCl per well.

[6] = molecular target: T1, EGFR; assay: cell EGF assay; type: cell-based
Method: Several of the assays described herein are performed in an ELISA (Enzyme-Linked Immunosorbent Sandwich Assay) format (Voller, et al., 1980, “Enzyme-Linked Immunosorbent Assay,” Manual of Clinical Immunology, 2d ed., Rose and Friedman, Am. Soc. Of Microbiology, Washington, D.C., pp. 359-371). The general procedure is as follows: a compound is introduced to cells expressing the test kinase, either naturally or recombinantly, for a selected period of time after which, if the test kinase is a receptor, a ligand known to activate the receptor is added. The cells are lysed and the lysate is transferred to the wells of an ELISA plate previously coated with a specific antibody recognizing the substrate of the enzymatic phosphorylation reaction. Non-substrate components of the cell lysate are washed away and the amount of phosphorylation on the substrate is detected with an antibody specifically recognizing phosphotyrosine compared with control cells that were not contacted with a test compound.

[7] = molecular target: T5, HER-2 kinase (Homo sapiens, UniProt P04626); assay: Cellular HER-2 kinase assay; type: cell-based; details: read-out: Her2 Kinase IC50
T5 construct: Use EGFr/HER-2 chimera/3T3-C7 cell line for this assay; It is expressed in mouse NIH 3T3 clone C7 cells; P00533 (Epidermal growth factor receptor)
T5 sequence (P04626 720-987 limits assumed): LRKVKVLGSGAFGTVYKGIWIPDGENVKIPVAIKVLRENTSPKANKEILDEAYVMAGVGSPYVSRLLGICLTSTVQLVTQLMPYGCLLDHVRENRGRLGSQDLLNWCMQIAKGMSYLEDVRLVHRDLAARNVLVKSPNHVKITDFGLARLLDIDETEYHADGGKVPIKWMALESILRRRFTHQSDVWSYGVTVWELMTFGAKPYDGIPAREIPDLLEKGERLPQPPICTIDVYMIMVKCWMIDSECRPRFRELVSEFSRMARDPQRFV

[8] = molecular target: T6, HA epitope-tagged full length pyk2 (FL.pyk2-HA) (Homo sapiens, UniProt Q14289); assay: PYK2 bioassay; type: biochemical; details: read-out: bio pyk2 IC50
T6 construct: host or cells: Sf9
T6 sequence (Q14289 whole entry): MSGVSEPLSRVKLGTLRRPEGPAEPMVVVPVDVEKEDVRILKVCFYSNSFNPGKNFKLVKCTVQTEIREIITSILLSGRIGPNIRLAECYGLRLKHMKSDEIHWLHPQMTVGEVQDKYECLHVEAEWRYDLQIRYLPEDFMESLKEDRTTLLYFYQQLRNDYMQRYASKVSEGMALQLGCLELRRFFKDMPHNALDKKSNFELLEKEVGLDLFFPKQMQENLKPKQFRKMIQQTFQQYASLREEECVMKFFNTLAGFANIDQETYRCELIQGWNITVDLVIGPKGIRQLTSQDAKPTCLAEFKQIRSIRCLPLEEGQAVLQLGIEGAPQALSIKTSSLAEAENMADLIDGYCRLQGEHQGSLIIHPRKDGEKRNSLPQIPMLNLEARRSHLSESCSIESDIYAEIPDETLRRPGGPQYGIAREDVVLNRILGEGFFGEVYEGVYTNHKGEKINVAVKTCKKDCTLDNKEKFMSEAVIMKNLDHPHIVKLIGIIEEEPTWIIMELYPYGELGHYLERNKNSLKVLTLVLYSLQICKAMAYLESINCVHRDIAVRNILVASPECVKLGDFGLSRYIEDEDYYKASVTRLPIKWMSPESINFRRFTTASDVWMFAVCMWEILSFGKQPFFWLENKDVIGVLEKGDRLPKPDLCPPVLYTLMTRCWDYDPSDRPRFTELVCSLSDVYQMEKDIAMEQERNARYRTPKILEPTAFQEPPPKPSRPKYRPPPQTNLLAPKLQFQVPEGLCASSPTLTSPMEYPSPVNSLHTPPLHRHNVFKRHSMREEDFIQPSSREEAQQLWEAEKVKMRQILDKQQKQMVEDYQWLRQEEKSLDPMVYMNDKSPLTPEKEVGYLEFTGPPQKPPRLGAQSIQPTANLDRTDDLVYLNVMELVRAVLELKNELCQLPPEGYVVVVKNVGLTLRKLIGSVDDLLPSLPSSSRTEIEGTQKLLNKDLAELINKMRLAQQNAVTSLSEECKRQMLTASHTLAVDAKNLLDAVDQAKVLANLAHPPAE
Method: This assay is used to measure the in vitro kinase activity of HA epitope-tagged full length pyk2 (FL.pyk2-HA) in an ELISA assay.
Corning 96-well Elisa plates.
12CA5 monoclonal anti-HA antibody (SUGEN, Inc.)
PBS (Dulbecco's Phosphate-Buffered Saline (Gibco Catalog #450-1300EB)
Adjust pH to 7.2, bring volume to 1 L.
FL.pyk2-HA from sf9 cell lysates (SUGEN, Inc.).
Just prior to use, add 0.1 ml 1M DTT.
as §3
ABTS, Moss, Cat. No. ABST-2000.
Coat Corning 96 well ELISA plates with 0.5 μg per well 12CA5 anti-HA antibody in 100 μl PBS. Store overnight at 4° C.
Remove unbound HA antibody from wells by inverting plate. Wash plate with dH2O. Pat the plate on a paper towel to remove excess liquid.
Add 150 μl Blocking Buffer to each well. Incubate, with shaking, for 30 min at room temperature.
Dilute lysate in PBS (1.5 μg lysate/100 μl PBS).
Add 100 μl of diluted lysate to each well. Shake at room temperature for 1 hr.
Add 50 μl of 2×kinase Buffer to ELISA plate containing captured pyk2-HA.
Add 25 μL of 400 μM test compound in 4% DMSO to each well. For control wells use 4% DMSO alone.
Add 25 μL of 0.5 M EDTA to negative control wells.
Add 25 μl of 20 μM ATP to all wells. Incubate, with shaking, for 10 minutes.
Stop reaction by adding 25 μl 500 mM EDTA (pH 8.0) to all wells.
Add 100 μL HRP conjugated anti-Ptyr diluted 1:6000 in Antibody Dilution Buffer to each well. Incubate, with shaking, for 1 hr. at room temperature.
Wash plate 3×with TBST and 1×with PBS.
Add 100 μL of ABST solution to each well.
If necessary, stop the development reaction by adding 20 μL 10% SDS to each well.

T1 sequence (P00533 25-1210): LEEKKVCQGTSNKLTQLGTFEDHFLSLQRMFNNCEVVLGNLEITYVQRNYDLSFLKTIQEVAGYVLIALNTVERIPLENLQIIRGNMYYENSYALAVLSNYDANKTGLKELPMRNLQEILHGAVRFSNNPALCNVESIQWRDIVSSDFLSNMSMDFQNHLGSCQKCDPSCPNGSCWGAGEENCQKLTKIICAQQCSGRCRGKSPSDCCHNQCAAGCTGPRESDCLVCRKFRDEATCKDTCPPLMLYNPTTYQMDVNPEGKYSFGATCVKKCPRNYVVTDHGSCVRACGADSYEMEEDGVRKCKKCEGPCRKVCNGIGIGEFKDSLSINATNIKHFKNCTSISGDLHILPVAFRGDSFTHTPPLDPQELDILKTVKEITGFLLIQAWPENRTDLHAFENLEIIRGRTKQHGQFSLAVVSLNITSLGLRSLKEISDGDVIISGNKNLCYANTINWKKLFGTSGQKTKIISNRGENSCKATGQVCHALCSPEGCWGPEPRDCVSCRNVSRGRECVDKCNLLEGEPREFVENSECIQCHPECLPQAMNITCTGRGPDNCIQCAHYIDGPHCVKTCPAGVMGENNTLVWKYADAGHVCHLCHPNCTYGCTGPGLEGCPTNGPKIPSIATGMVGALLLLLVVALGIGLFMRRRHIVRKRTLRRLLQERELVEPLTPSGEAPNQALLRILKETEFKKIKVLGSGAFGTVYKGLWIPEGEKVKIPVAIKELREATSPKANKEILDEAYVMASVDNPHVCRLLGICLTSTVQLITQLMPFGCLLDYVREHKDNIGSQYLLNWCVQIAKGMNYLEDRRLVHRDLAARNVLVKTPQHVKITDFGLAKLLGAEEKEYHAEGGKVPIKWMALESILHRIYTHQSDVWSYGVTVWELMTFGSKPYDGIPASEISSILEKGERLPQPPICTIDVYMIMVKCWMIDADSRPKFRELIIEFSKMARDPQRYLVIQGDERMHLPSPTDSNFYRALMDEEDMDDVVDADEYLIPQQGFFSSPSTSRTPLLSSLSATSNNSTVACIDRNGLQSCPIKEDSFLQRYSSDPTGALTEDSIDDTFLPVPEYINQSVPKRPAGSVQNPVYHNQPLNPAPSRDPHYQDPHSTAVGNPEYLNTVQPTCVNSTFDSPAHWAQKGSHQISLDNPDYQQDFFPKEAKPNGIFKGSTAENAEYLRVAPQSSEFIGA

Structure (SMILES) | IC50 [1] [µM] | IC50 [2] [µM] | IC50 [3] [µM] | IC50 [4] [µM] | IC50 [5] [µM] | IC50 [6] [µM] | IC50 [7] [µM] | IC50 [8] [µM]
CNS(=O)(=O)c1ccc2c(c1)C(=Cc1[nH]cc(C(=O)NCC(=O)O)c1C)C(=O)N2 [Example 118, {[4-Methyl-5-(5-methylsulfamoyl-2-oxo-1,2-dihydro-indol-3-ylidenemethyl)-1H-pyrrole-3-carbonyl]-amino}-acetic acid] | > 100 | 0.002 | – | – | – | – | – | –
CNS(=O)(=O)c1ccc2c(c1)C(=Cc1[nH]cc(C(=O)O)c1C)C(=O)N2 [Example 115, 4-Methyl-5-(5-methylsulfamoyl-2-oxo-1,2-dihydro-indol-3-ylidenemethyl)-1H-pyrrole-3-carboxylic acid] | > 100 | 0.006 | – | – | – | – | – | –
Cc1cc(C(=O)O)[nH]c1/C=C1\C(=O)Nc2ccc(Cl)cc21 [Example 5, 5-(5-Chloro-2-oxo-1,2-dihydroindol-3-ylidenemethyl)-4-methyl-1H-pyrrole-2-carboxylic acid] | > 100 | – | 8.3 | 16.1 | > 100 | > 100 | > 100 | –
Cc1[nH]c(/C=C2\C(=O)Nc3cccc(CCO)c32)c(C)c1C(=O)N1CCN(C)CC1 [Example 85, 3-[3,5-Dimethyl-4-(4-methyl-piperazine-1-carbonyl)-1H-pyrrol-2-ylmethylene]-4-(2-hydroxy-ethyl)-1,3-dihydroindol-2-one] | > 100 | – | 0.2 | 0.8 | 2.59 | – | 3.76 | –
CCN(CC)CCNC(=O)c1c(C)[nH]c(/C=C2\C(=O)Nc3ccc(S(=O)(=O)N(C)C)cc32)c1C [Example 87, 5-(5-Dimethylsulfamoyl-2-oxo-1,2-dihydroindol-3-ylidenemethyl)-2,4-dimethyl-1H-pyrrole-3-carboxylic acid (2-diethylaminoethyl)amide] | – | – | 3.27 | 7.56 | 6.46 | – | 9.1 | 0.17
CCN(CC)CCNC(=O)c1c(C)[nH]c(/C=C2\C(=O)Nc3ccc(S(=O)(=O)Nc4cccc(Cl)c4)cc32)c1C [Example 88, 5-[5-(3-Chloro-phenylsulfamoyl)-2-oxo-1,2-dihydroindol-3-ylidenemethyl]-2,4-dimethyl-1H-pyrrole-3-carboxylic acid (2-diethylaminoethyl)amide] | 2.36 | – | 0.35 | 1.18 | 8.06 | – | > 100 | 0.09
Cc1[nH]c(/C=C2\C(=O)Nc3ccc(S(=O)(=O)Nc4cccnc4)cc32)c(C)c1C(=O)NCCN1CCCC1 [Example 84, 2,4-Dimethyl-5-[2-oxo-5-(pyridin-3-ylsulfamoyl)-1,2-dihydroindol-3-ylidenemethyl]-1H-pyrrole-3-carboxylic acid (2-pyrrolidin-1-yl-ethyl)amide] | 67.2 | – | 1.38 | – | 12.5 | – | 5.86 | 0.006
CCOC(=O)c1cc(C)c(/C=C2\C(=O)Nc3ccc(Cl)cc32)[nH]1 [Example 4, 5-(5-Chloro-2-oxo-1,2-dihydroindol-3-ylidenemethyl)-4-methyl-1H-pyrrole-2-carboxlyc acid ethyl ester] | > 100 | – | 3.57 | > 20 | > 100 | > 100 | > 100 | –
Cc1[nH]c(/C=C2\C(=O)Nc3ccc(Br)cc32)c(C)c1C(=O)NCCN(C)C [Example 48, 5-(5-Bromo-2-oxo-1,2-dihydroindol-3-ylidenemethyl)-2,4-dimethyl-1H-pyrrole-3-carboxylic acid (2-dimethylamino-ethyl)amide] | 17.9 | – | 0.006 | 0.3 | < 0.78 | 21.6 | 7.93 | 0.09
Cc1[nH]c(/C=C2\C(=O)Nc3ccc(S(=O)(=O)Nc4ccccc4)cc32)c(C)c1C(=O)N1CCN(C)CC1 [Example 86, 3-[3,5-Dimethyl-4-(4-methyl-piperazine-1-carbonyl)-1H-pyrrol-2-ylmethylene]-2-oxo-2,3-dihydro-1H-indole-5-sulfonic acid phenylamide] | 41.8 | – | 1.45 | 1.3 | 19.6 | – | – | 3.58
CCN(CC)CCCNC(=O)c1c(C)[nH]c(/C=C2\C(=O)Nc3ccc(Br)cc32)c1-c1ccccc1 [Example 47, 5-(5-Bromo-2-oxo-1,2-dihydroindol-3-ylidenemethyl)-2-methyl-4-phenyl-1H-pyrrole-3-carboxylic acid (3-diethylaminopropyl)amide] | 11.4 | – | 0.08 | 1.56 | 0.06 | 41.5 | 8.4 | 1.05
Cc1[nH]c(/C=C2\C(=O)Nc3ccc(S(=O)(=O)N(C)C)cc32)c(C)c1C(=O)NCCN1CCCC1 [Example 82, 5-(5-Dimethylsulfamoyl-2-oxo-1,2-dihydroindol-3-ylidenemethyl)-2,4-dimethyl-1H-pyrrole-3-carboxylic acid (2-pyrrolidin-1-yl-ethyl)amide] | – | – | 2.03 | 7.69 | 6.88 | – | – | 0.31
CC(C)c1[nH]c(/C=C2\C(=O)Nc3ccc(Br)cc32)c(-c2ccccc2)c1C(=O)NCCCN1CCCC1 [Example 38, 5-(5-Bromo-2-oxo-1,2-dihydroindol-3-ylidenemethyl)-2-isopropyl-4-phenyl-1H-pyrrole-3-carboxylic acid (3-pyrrolidin-1-ylpropyl)amide] | 6.04 | – | 4.17 | – | 3.06 | 8.97 | 2.16 | –
Cc1[nH]c(/C=C2\C(=O)Nc3ccc(S(=O)(=O)Nc4cccc(Cl)c4)cc32)c(C)c1C(=O)NCCN1CCCC1 [Example 83, 5-[5-(3-Chloro-phenylsulfamoyl)-2-oxo-1,2-dihydroindol-3-ylidenemethyl]-2,4-dimethyl-1H-pyrrole-3-carboxylic acid (2-pyrrolidin-1-yl-ethyl)amide] | 2.18 | – | 0.34 | 0.41 | 9.46 | – | 86.9 | 0.008
CCN(CC)CCCNC(=O)c1c(C(C)C)[nH]c(/C=C2\C(=O)Nc3ccc(Br)cc32)c1C(C)C [Example 72, 5-(5-Bromo-2-oxo-1,2-dihydroindol-3-ylidenemethyl)-2,4-diisopropyl-1H-pyrrole-3-carboxylic acid (3-diethylaminopropyl)amide] | > 100 | – | 6.06 | – | 10.5 | 39.9 | 9.65 | –
CCOC(=O)c1c(C)[nH]c(/C=C2\C(=O)Nc3ccc(Br)cc32)c1-c1ccccc1 [Example 46, 5-(5-Bromo-2-oxo-1,2-dihydroindol-3-ylidenemethyl)-2-methyl-4-phenyl-1H-pyrrole-3-carboxylic acid ethyl ester] | > 100 | – | 30.6 | – | 6.18 | > 100 | > 100 | –
COC(=O)c1cc(C)c(/C=C2\C(=O)Nc3ccccc32)[nH]1 [Example 3, 4-Methyl-5-(2-oxo-1,2-dihydroindol-3-ylidenemethyl)-1H-pyrrole-2-carboxylic acid methyl ester] | > 100 | – | 9.85 | 9.62 | > 100 | > 100 | – | > 100
Cc1[nH]c(/C=C2\C(=O)Nc3ccc(Br)cc32)c(-c2ccccc2)c1C(=O)NCCN(C)C [Example 44, 5-(5-Bromo-2-oxo-1,2-dihydroindol-3-ylidenemethyl)-2-methyl-4-phenyl-1H-pyrrole-3-carboxylic acid (2-dimethylamino-ethyl)amide] | 20.7 | – | < 0.05 | – | 0.02 | 67.5 | 6.99 | –
Cc1cc(C(=O)O)[nH]c1/C=C1\C(=O)Nc2ccccc21 [Example 1, 4-Methyl-5-(2-oxo-1,2-dihydroindol-3-ylidenemethyl)-1H-pyrrole-2-carboxylic acid] | > 100 | – | 57.7 | 15.2 | > 100 | > 100 | – | > 100
Cc1[nH]c(/C=C2\C(=O)Nc3cc(-c4cccnc4)ccc32)c(C)c1C(=O)NCCN1CCCC1 [Example 64, 2,4-Dimethyl-5-(2-oxo-6-pyridin-3-yl-1,2-dihydroindol-3-ylidenemethyl)-1H-pyrrole-3-carboxylic acid (2-pyrrolidin-1-yl-ethyl)amide] | 30.5 | – | 0.55 | – | < 0.78 | > 100 | > 100 | –
